Data on one compound can be found in US5399487A, “6-peptidylamino-1-naphthalenesulfonamides useful as fluorogenic proteolytic enzyme substrates” (Haematologic Technologies, Inc., priority 1993, dated 1995).

A value given as a limit tells only on which side of the number the result lay.

Type in all cases: biochemical
In assay [1] the target is activated protein C (APC) (Homo sapiens, UniProt P04070). Kind of assay: Fluorogenic enzyme assay (Example 5). Also on record: key to Kinetic constants, APC (symbol b): slow substrate hydrolysis, no kinetic constants calculated. The essentials: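 Fluorogenic substrate was diluted into 20 mM Tris, 150 mM NaCl, pH 7.4, enzyme added at room temperature (22° C), and fluorescence at 470 nm (excitation 352 nm) monitored to give initial rates. Rates were converted via a fluorophore standard curve and fitted for Km and kcat.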

Assay [2] deals with T1, factor VIIa (Homo sapiens, UniProt P08709).
T1 construct: directly measure the enzymatic activity of factor VIIa in the presence and absence of tissue factor and phospholipid
T1 sequence (P08709 213-466 limits assumed): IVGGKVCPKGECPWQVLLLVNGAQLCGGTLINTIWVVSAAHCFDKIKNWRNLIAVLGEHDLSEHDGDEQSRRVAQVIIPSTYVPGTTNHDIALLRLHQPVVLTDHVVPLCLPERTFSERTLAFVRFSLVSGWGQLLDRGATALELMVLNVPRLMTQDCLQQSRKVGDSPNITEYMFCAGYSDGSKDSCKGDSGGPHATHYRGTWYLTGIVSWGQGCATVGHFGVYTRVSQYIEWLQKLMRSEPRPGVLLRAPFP
T1 sequence (P08709 61-212 limits assumed): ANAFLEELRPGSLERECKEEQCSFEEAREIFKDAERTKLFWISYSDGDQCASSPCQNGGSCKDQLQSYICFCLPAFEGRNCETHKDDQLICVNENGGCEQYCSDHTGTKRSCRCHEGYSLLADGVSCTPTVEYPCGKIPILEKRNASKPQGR
Put plainly: Factor VIIa substrate hydrolysis in presence and absence of tissue factor (FIG. 2). The text has this:
(§1) When coupled to methanesulfonyl-D-leucinyl-glycinyl-arginine(Mes-D-Leu-Gly-Arg), 6-amino-1-(N,N-diethyl)napthalenesulfonamide the resulting substrate yielded significant reactivity with factor VIIa. This substrate was sufficiently reactive with factor VIIa to allow reliable quantitation of factor VIIa activity at concentrations of about 10^-9 M. Further, this substrate was useful for the measurement of factor VIIa activity when it was bound to its co-factor protein tissue factor. The interaction of tissue factor with factor VIIa enhanced the factor VIIa dependent substrate hydrolysis by 120 fold. Thus, the invention provides unique substrates suitable for measuring both the activity of factor VIIa directly and in complex reactions involving the interaction between tissue factor and factor VIIa.
(§2) The binding of factor VIIa to tissue factor was analyzed by factor VIIa substrate hydrolysis when complexed with tissue factor. Tissue factor was relipidated into PC or PCPS vesicles as described above. The final concentration of tissue factor and phospholipid used for all binding studies was 2 nM and 200 μM respectively. In control experiments where tissue factor was in excess, 50 nM tissue factor and 200 μM PCPS vesicles were used. Recombinant factor VIIa (0.5 to 20 nM) was added to assembled TF/phospholipid complex and incubated for 15 minutes at 37° C. in HBS. The reaction was started by the addition of substrate (40 μM final) and the rate of substrate hydrolysis as reported by an increase in fluorescent intensity was recorded as described above in Example 5. The instrument was standardized daily using a 1 μM stock of the 6-amino-1-(N,N-diethyl)napthalenesulfonamide in HBS at 37° C. as described above.
(§3) The increase in the rate of factor VIIa substrate hydrolysis, both in the presence and absence of tissue factor, is linear over the concentration range tested, as shown in FIG. 2. […] In FIG. 2, filled triangles represent the rate of substrate hydrolysis as a function of increasing factor VIIa concentrations with an excess of tissue factor ([…]) in the assay. […]

The subject of assay [3] is factor VIIa. The description is as above. The following applies: with vs without tissue factor.
From the text: as §1, §2, §3

Sequence of activated protein C (APC) (P04070 212-461 limits assumed): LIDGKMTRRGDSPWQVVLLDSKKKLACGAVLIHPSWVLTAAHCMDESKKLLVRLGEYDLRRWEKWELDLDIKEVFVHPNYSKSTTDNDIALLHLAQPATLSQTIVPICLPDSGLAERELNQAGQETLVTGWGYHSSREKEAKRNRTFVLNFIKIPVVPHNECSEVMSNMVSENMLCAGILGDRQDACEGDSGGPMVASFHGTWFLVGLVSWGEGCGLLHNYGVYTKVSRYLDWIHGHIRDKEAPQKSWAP
Sequence of activated protein C (APC) (P04070 43-197 limits assumed): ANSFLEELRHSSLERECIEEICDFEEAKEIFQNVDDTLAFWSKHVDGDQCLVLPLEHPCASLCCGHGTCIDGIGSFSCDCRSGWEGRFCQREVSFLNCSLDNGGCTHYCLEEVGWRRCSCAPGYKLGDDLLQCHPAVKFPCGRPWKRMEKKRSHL

In the case of `CCN(CC)S(=O)(=O)c1cccc2cc(NC(=O)[C@H](CCCNC(=N)N)NC(=O)CNC(=O)[C@@H](CC(C)C)NS(C)(=O)=O)ccc12` [MesD-LPR-ANSN(C2 H5)2, 6-(Mes-D-Leu-Gly-Arg)amino-1-(N,N-diethyl)napththalenesulfonamide], the “TIME TO 10% HYDROLYSIS (HOURS), APC” value in assay [1] (100 nM enzyme (footnote b), substrate 1 μM) was 0.5 h. The “Kinetic constants, APC (symbol b)” value in assay [1] (Table 9) was “b”. The “factor VIIa concentration allowing reliable quantitation of factor VIIa activity” value on factor VIIa [2] is “about 10^-9 M”. Besides, the entries for the “enhancement of factor VIIa dependent substrate hydrolysis by tissue factor” value with factor VIIa [3] (listed as 6-(Mes-D-Leu-Gly-Arg)amino-1-(N,N-diethyl)naphthalenesulfonamide) and in the assay with factor VIIa [3] (listed as factor VIIa substrate) were 120 fold and over 100 fold, respectively.
